Molecules are shown by their SMILES. Where only a bound is given, the exact number is not on record here.

The values that follow come from patent US6362193B1, “Cycloalkenyl substituted compounds” (SmithKline Beecham Corporation, priority 1997, dated 2002).

Data set [1] addresses T1, CSBP2 (Homo sapiens, UniProt Q16539).
T1 construct: made in house; host or cells: yeast
Briefly: CSBP Kinase Assay. Format: biochemical. The settings on record: yeast-expressed purified CSBP2; 170 uM ATP (Km); T669 peptide substrate; 30° C. for 10 min. As for the experimental part: This assay measures the CSBP-catalyzed transfer of ^32P from [a-^32P]ATP to threonine residue in an epidermal growth factor receptor (EGFR)-derived peptide (T669) with the following sequence: […] (residues 661-681). (See Gallagher et al., “Regulation of Stress Induced Cytokine Production by Pyridinyl Imidazoles: Inhibition of CSPB Kinase”, BioOrganic & Medicinal Chemistry, to be published 1996).
Kinase reactions (total volume 30 ul) contain: 25 mM Hepes buffer, pH 7.5; 10 mM MgCl2; 170 uM ATP^(1); 10 uM Na ortho vanadate; 0.4 mM T669 peptide; and 20-80 ng of yeast-expressed purified CSBP2 (see Lee et al., Nature 300, n(72), 739-746 (December 1994)). Compounds (5 ul from [6×] stock^(2)) are pre-incubated with the enzyme and peptide for 20 min on ice prior to starting the reactions with 32P/MgATP. Reactions are incubated at 30° C. for 10 min and stopped by adding 10 ul of 0.3 M phosphoric acid. 32P-labeled peptide is separated on phosphocellulose (Wattman, p81) filters by spotting 30 ul reaction mixture. Filters are washed 3 times with 75 mM phosphoric acid followed by 2 washes with H2O, and counted for 32P.
(1) The Km of CSBP for ATP was determined to be 170 uM. Therefore, compounds screened at the Km value of ATP.
(2) Compounds are usually dissolved in DMSO and are diluted in 25 mM Hepes buffer to get final concentration of DMSO of 0.17%.

T1 sequence (Q16539 whole entry): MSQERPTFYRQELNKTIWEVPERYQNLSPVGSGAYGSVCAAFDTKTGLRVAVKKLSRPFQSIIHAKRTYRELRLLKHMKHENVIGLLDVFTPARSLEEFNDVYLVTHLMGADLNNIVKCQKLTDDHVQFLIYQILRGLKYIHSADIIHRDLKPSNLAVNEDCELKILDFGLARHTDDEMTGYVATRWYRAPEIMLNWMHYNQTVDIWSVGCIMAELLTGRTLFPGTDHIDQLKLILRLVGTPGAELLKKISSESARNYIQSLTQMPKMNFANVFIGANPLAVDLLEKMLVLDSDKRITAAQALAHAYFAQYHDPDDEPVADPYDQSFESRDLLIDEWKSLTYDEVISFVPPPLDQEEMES

For orientation: melting point means the temperature, or range, at which the solid turns liquid. Usually IC50 stands for the midpoint of a concentration-inhibition curve. Read a low IC50 as greater potency in that assay. `Nc1nccc(C2=C(c3ccc(F)cc3)CCC2)n1` [Example 1, 1-[4-(2-Aminopyrimidinyl)]-2-(4-fluorophenyl)cyclopenten-1-ene] yielded a melting point of 134 to 135 °C. Moreover, the IC50 in data set [1] was below 50 µM.
